Test results from US7504362B2, “Pesticidal compositions” (Merial Limited, priority 2002, dated 2009).

Tested on: Ctenocephalides felis, Diabrotica undecimpunctata, Nephotettix cincticeps or Rhipicephalus sanguineus
Experiment: Pooled statement: active in one or more of the above tests (Methods A to E)
Assay type: in vivo
Settings: active = reaching the threshold of Method A, B, C, D or E; test not given per compound
Description: The following representative test procedures, using compounds of the invention, were conducted to determine the parasiticidal and pesticidal activity of compounds of the invention.
A test container was filled with 10 adults of Ctenocephalides felis. A glass cylinder was closed on one end with parafilm and placed on top of the test container. The test compound solution was then pipetted into bovine blood and added to the glass cylinder. The treated Ctenocephalides felis were held in this artificial dog test (blood 37° C., 40-60% relative humidity; Ctenocephalides felis 20-22° C., 40-60% relative humidity) and assessment performed at 24 and 48 hours after application. Active compounds gave at least 90% control of Ctenocephalides felis at a test concentration of 5 ppm or less.
Two days before application, seeds of maize were soaked in water under warm conditions to elicit fast germination. One day before application, eggs of Diabrotica undecimpunctata were transferred to one half of a Japanese filter paper placed in a plastic petri dish. Afterwards, a sprouted maize seed was placed on a moistened pad beside the filter paper. Three drops of 200 microliters of test compound solution were carefully pipetted onto the egg. The remainder of the solution was placed on the maize and then the Petri dish was closed. The treated eggs in the Petri dishes were held in a climate chamber for 6 days. The compound efficacy (percentage of dead eggs and/or larvae in comparison to untreated control) was assessed 6 days after application using a binocular microscope.
Active compounds gave at least 90% control of Diabrotica undecimpunctata at a test concentration of 10 ppm.
The leaves of 12 rice plants having a stem length of 8 cm were dipped for 5 seconds into an aqueous solution of the formulated test compound. After the solution had run off, the rice plants treated in this manner were placed in a Petri dish and populated with about 20 larvae (L3 stage) of Nephotettix cincticeps. The Petri dish was closed and then stored in a climate chamber (16 hours of light/day, 25° C., 40-60% relative humidity). After 6 days storage, the percentage mortality of leafhopper larvae was determined.
Active compounds gave at least 98% mortality of Nephotettix cinciceps larvae at a test concentration of 100 ppm.
Solutions of the test compounds were dropped onto filter paper, dried and the filter paper placed into test tubes and infested with 10 adults of Ctenocephalides felis. The treated Ctenocephalides felis were held in a climate chamber (26° C., 80% RH) and the percentage efficacy assessed 24 hours and 48 hours after application in comparison with the untreated control.
Active compounds gave at least 70% contact control of Ctenocephalides felis at a test concentration of 1000 ppm.
Solutions of the test compounds were dropped onto filter paper, dried and the filter paper placed into test tubes and infested with 20-30 larvae (L1) of Rhipicephalus sanguineus and the tubes closed with a clip. The treated Rhipicephalus sanguineus were held in a climate chamber (25° C., 90% RH) and the percentage efficacy assessed 24 hours after application in comparison with the untreated control. Active compounds gave at least 70% contact control of Rhipicephalus sanguineus at a test concentration of 100 ppm.

| Compound | active in one or more of the above tests |
| --- | --- |
| CN(c1c([S+]([O-])C(F)(F)F)c(C#N)nn1-c1c(Cl)cc(C(F)(F)F)cc1Cl)S(=O)(=O)Cc1cc(C(F)(F)F)cc(C(F)(F)F)c1 (stereo not shown) [Compound 2-94] | active |
| Cc1ccc(CS(=O)(=O)N(C)c2c([S+]([O-])C(F)(F)F)c(C#N)nn2-c2c(Cl)cc(C(F)(F)F)cc2Cl)cc1 (stereo not shown) [Compound 2-109] | active |
| CN(c1c(S(=O)(=O)C(F)(F)F)c(C#N)nn1-c1c(Cl)cc(C(F)(F)F)cc1Cl)S(=O)(=O)Cc1ccc(Cl)cc1 [Compound 2-115] | active |
| CN(c1c(S(=O)(=O)C(F)(F)F)c(C#N)nn1-c1c(Cl)cc(C(F)(F)F)cc1Cl)S(=O)(=O)Cc1ccc(F)cc1 [Compound 2-121] | active |
| CN(c1c(S(=O)(=O)C(F)(F)F)c(C#N)nn1-c1c(Cl)cc(C(F)(F)F)cc1Cl)S(=O)(=O)Cc1cccc(C(F)(F)F)c1 [Compound 2-127] | active |
| CN(c1c(S(=O)(=O)C(F)(F)F)c(C#N)nn1-c1c(Cl)cc(C(F)(F)F)cc1Cl)S(=O)(=O)Cc1ccc(C(F)(F)F)cc1 [Compound 2-128] | active |
| CN(c1c(S(=O)(=O)C(F)(F)F)c(C#N)nn1-c1c(Cl)cc(C(F)(F)F)cc1Cl)S(=O)(=O)Cc1cc(C(F)(F)F)cc(C(F)(F)F)c1 [Compound 2-129] | active |
| Cc1ccc(CS(=O)(=O)N(C)c2c(S(=O)(=O)C(F)(F)F)c(C#N)nn2-c2c(Cl)cc(C(F)(F)F)cc2Cl)cc1 [Compound 2-144] | active |
| CCCCCc1ccc(CS(=O)(=O)N(C)c2c(SC(F)(F)F)c(C#N)nn2-c2c(Cl)cc(C(F)(F)F)cc2Cl)cc1 [Compound 2-148] | active |
| CN(c1c(SC(F)(F)F)c(C#N)nn1-c1c(Cl)cc(C(F)(F)F)cc1Cl)S(=O)(=O)Cc1cc(Cl)cc(Cl)c1 [Compound 2-149] | active |
| CN(c1c([S+]([O-])C(F)(F)F)c(C#N)nn1-c1c(Cl)cc(C(F)(F)F)cc1Cl)S(=O)(=O)Cc1cc(Cl)cc(Cl)c1 (stereo not shown) [Compound 2-150] | active |
| CN(c1c(S(=O)(=O)C(F)(F)F)c(C#N)nn1-c1c(Cl)cc(C(F)(F)F)cc1Cl)S(=O)(=O)Cc1cc(Cl)cc(Cl)c1 [Compound 2-151] | active |
| CN(c1c(SC(F)(F)F)c(C#N)nn1-c1c(Cl)cc(C(F)(F)F)cc1Cl)S(=O)(=O)Cc1ccc(Cl)s1 [Compound 4-32] | active |
| CN(c1c(SC(F)(F)F)c(C#N)nn1-c1c(Cl)cc(C(F)(F)F)cc1Cl)S(=O)(=O)Cc1cccs1 [Compound 4-33] | active |
| CN(c1c(S(=O)(=O)C(F)(F)F)c(C#N)nn1-c1c(Cl)cc(C(F)(F)F)cc1Cl)S(=O)(=O)Cc1cccs1 [Compound 4-34] | active |
| CN(c1c([S+]([O-])C(F)(F)F)c(C#N)nn1-c1c(Cl)cc(C(F)(F)F)cc1Cl)S(=O)(=O)Cc1ccc(Cl)s1 (stereo not shown) [Compound 4-35] | active |
| CN(c1c(SC(F)(F)F)c(C#N)nn1-c1c(Cl)cc(C(F)(F)F)cc1Cl)S(=O)(=O)c1ccccc1Cl [Compound 5-1] | active |
| CN(c1c(SC(F)(F)F)c(C#N)nn1-c1c(Cl)cc(C(F)(F)F)cc1Cl)S(=O)(=O)c1ccc(F)cc1 [Compound 5-9] | active |
| CN(c1c(SC(F)(F)F)c(C#N)nn1-c1c(Cl)cc(C(F)(F)F)cc1Cl)S(=O)(=O)c1cccc(C(F)(F)F)c1 [Compound 5-15] | active |
| CN(c1c(SC(F)(F)F)c(C#N)nn1-c1c(Cl)cc(C(F)(F)F)cc1Cl)S(=O)(=O)c1ccc(C(F)(F)F)cc1 [Compound 5-16] | active |
| COc1ccc(S(=O)(=O)N(C)c2c(SC(F)(F)F)c(C#N)nn2-c2c(Cl)cc(C(F)(F)F)cc2Cl)cc1 [Compound 5-22] | active |
| Cc1cccc(S(=O)(=O)N(C)c2c(SC(F)(F)F)c(C#N)nn2-c2c(Cl)cc(C(F)(F)F)cc2Cl)c1 [Compound 5-30] | active |

| Compound | active in one or more of the above tests |
| --- | --- |
| Cc1ccc(S(=O)(=O)N(C)c2c(SC(F)(F)F)c(C#N)nn2-c2c(Cl)cc(C(F)(F)F)cc2Cl)cc1 [Compound 5-32] | active |
| CN(c1c(SC(F)(F)F)c(C#N)nn1-c1c(Cl)cc(C(F)(F)F)cc1Cl)S(=O)(=O)c1ccccc1 [Compound 5-36] | active |
| CN(c1c(SC(F)(F)F)c(C#N)nn1-c1c(Cl)cc(C(F)(F)F)cc1Cl)S(=O)(=O)c1ccc(C(C)(C)C)cc1 [Compound 5-38] | active |
| Cc1cc(C)c(S(=O)(=O)N(C)c2c(SC(F)(F)F)c(C#N)nn2-c2c(Cl)cc(C(F)(F)F)cc2Cl)c(C)c1 [Compound 5-40] | active |
| CN(c1c(SC(F)(F)F)c(C#N)nn1-c1c(Cl)cc(C(F)(F)F)cc1Cl)S(=O)(=O)c1cc(Cl)cc(Cl)c1 [Compound 5-42] | active |
| CN(c1c([S+]([O-])C(F)(F)F)c(C#N)nn1-c1c(Cl)cc(C(F)(F)F)cc1Cl)S(=O)(=O)c1ccccc1Cl (stereo not shown) [Compound 5-46] | active |
| CN(c1c([S+]([O-])C(F)(F)F)c(C#N)nn1-c1c(Cl)cc(C(F)(F)F)cc1Cl)S(=O)(=O)c1cccc(Cl)c1 (stereo not shown) [Compound 5-47] | active |
| CN(c1c([S+]([O-])C(F)(F)F)c(C#N)nn1-c1c(Cl)cc(C(F)(F)F)cc1Cl)S(=O)(=O)c1ccc(Cl)cc1 (stereo not shown) [Compound 5-48] | active |
| CN(c1c([S+]([O-])C(F)(F)F)c(C#N)nn1-c1c(Cl)cc(C(F)(F)F)cc1Cl)S(=O)(=O)c1ccc(F)cc1 (stereo not shown) [Compound 5-54] | active |
| CN(c1c([S+]([O-])C(F)(F)F)c(C#N)nn1-c1c(Cl)cc(C(F)(F)F)cc1Cl)S(=O)(=O)c1cccc(C(F)(F)F)c1 (stereo not shown) [Compound 5-60] | active |
| CN(c1c([S+]([O-])C(F)(F)F)c(C#N)nn1-c1c(Cl)cc(C(F)(F)F)cc1Cl)S(=O)(=O)c1ccc(C(F)(F)F)cc1 (stereo not shown) [Compound 5-61] | active |
| Cc1cccc(S(=O)(=O)N(C)c2c([S+]([O-])C(F)(F)F)c(C#N)nn2-c2c(Cl)cc(C(F)(F)F)cc2Cl)c1 (stereo not shown) [Compound 5-75] | active |
| Cc1ccc(S(=O)(=O)N(C)c2c([S+]([O-])C(F)(F)F)c(C#N)nn2-c2c(Cl)cc(C(F)(F)F)cc2Cl)cc1 (stereo not shown) [Compound 5-77] | active |
| CN(c1c([S+]([O-])C(F)(F)F)c(C#N)nn1-c1c(Cl)cc(C(F)(F)F)cc1Cl)S(=O)(=O)c1ccccc1 (stereo not shown) [Compound 5-81] | active |
| CN(c1c([S+]([O-])C(F)(F)F)c(C#N)nn1-c1c(Cl)cc(C(F)(F)F)cc1Cl)S(=O)(=O)c1ccc(C(C)(C)C)cc1 (stereo not shown) [Compound 5-83] | active |
| COC(=O)c1ccc(I)cc1S(=O)(=O)N(C)c1c([S+]([O-])C(F)(F)F)c(C#N)nn1-c1c(Cl)cc(C(F)(F)F)cc1Cl (stereo not shown) [Compound 5-86] | active |
| CN(c1c([S+]([O-])C(F)(F)F)c(C#N)nn1-c1c(Cl)cc(C(F)(F)F)cc1Cl)S(=O)(=O)c1cc(Cl)cc(Cl)c1 (stereo not shown) [Compound 5-87] | active |
| CN(c1c([S+]([O-])C(F)(F)F)c(C#N)nn1-c1c(Cl)cc(C(F)(F)F)cc1Cl)S(=O)(=O)c1ccc([N+](=O)[O-])cc1 (stereo not shown) [Compound 5-88] | active |
| CN(c1c([S+]([O-])C(F)(F)F)c(C#N)nn1-c1c(Cl)cc(C(F)(F)F)cc1Cl)S(=O)(=O)c1cccc2ccccc12 (stereo not shown) [Compound 5-89] | active |
| CN(c1c([S+]([O-])C(F)(F)F)c(C#N)nn1-c1c(Cl)cc(C(F)(F)F)cc1Cl)S(=O)(=O)c1ccc(-c2ccc(Cl)c(Cl)c2)cc1 (stereo not shown) [Compound 5-150] | active |
| CN(c1c([S+]([O-])C(F)(F)F)c(C#N)nn1-c1c(Cl)cc(C(F)(F)F)cc1Cl)S(=O)(=O)c1ccc(-c2ccc(F)cc2)cc1 (stereo not shown) [Compound 5-151] | active |
